Test results as given in patent US8080529B2, “Macrolides with anti-inflammatory activity” (Glaxo Group Limited, priority 2005, dated 2011).
Where two headings read alike, the source gives them in different places.

Key:
Hep G2 = test: Cytotoxicity assay (MTT), Hep G2 cell line; assay type: cell-based; details: 24 h
Summary of the method: (§1)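 Viability was read as MTT-formazan absorbance at 490 nm after 0.5-2 h with reagent. This followed 24 h compound exposure (50 μM, 12.5 μM) at 37° C in RPM medium. Result expressed as OD490 treated over untreated cells ×100.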

TNF-α [1] = test: Inhibition of TNF-α production by stimulated human peripheral blood leukocytes in vitro; assay type: cell-based; details: Homo sapiens, Leukocyte, read-out: Percentage of inhibition of TNF-α production
Summary of the method: (§2)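 Dextran-sedimented human PBL (3–5×10^6/well) preincubated 2 h at 37 °C with compounds at 50 μM or 10 μM, then stimulated overnight with LPS 2 μg/mL, PMA 1 μg/mL or zymosan 120 μg/mL. Supernatant cytokines quantified by sandwich ELISA; % inhibition versus stimulated untreated controls.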

IL-8 = test: Inhibition of IL-8 production by stimulated human peripheral blood leukocytes in vitro; assay type: cell-based; details: Homo sapiens, Leukocyte, read-out: Percentage of inhibition of IL-8 production
Summary of the method: as §2

IL-1α = test: Inhibition of IL-1 production by stimulated human peripheral blood leukocytes in vitro; assay type: cell-based; details: Homo sapiens, Leukocyte, read-out: Percentage of inhibition of IL-1α production
IL-6 = test: Inhibition of IL-6 production by stimulated human peripheral blood leukocytes in vitro; assay type: cell-based; details: Homo sapiens, Leukocyte, read-out: Percentage of inhibition of IL-6 production
Summary of the method: as §2

TNF-α [2] = test: Lipopolysaccharide induced TNF-α production in Balb/cJ mice; assay type: in vivo; details: Mus musculus, ip, 1.5 h; 10 mg/kg intraperitoneally, 30 min before LPS; 90 min after LPS; read-out: % inhibition of TNF-α production (plasma)
[3] = tested on: human peripheral blood mononuclear cells (PBMC); test: Effects on human T-cell proliferation in vitro (3H-thymidine incorporation); assay type: cell-based; details: Homo sapiens, PBMC, read-out: Percentage of inhibition of proliferation of stimulated PBMC
Summary of the method: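 Proliferation of human peripheral blood mononuclear cells (PBMC) was assessed in the presence of test compounds. During the final 18 h of culture each well received 1 μCi of ^3H-thymidine. Cells were then collected onto a 96-well filter with a multiple cell harvester, and ^3H-thymidine incorporation was counted on a TopCount NXT to give percentage inhibition of proliferation.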

A549 = test: Cytotoxicity assay (MTT), A549 cell line; assay type: cell-based; details: 24 h
Summary of the method: as §1

| Compound | Percentage of inhibition of cell growth (Hep G2; 12.5 μM) [%] | Percentage of inhibition of cell growth (Hep G2; 50 μM) [%] | inhibition at 10 µM (TNF-α [1]; LPS-stimulated PBL) [%] | inhibition at 10 µM (TNF-α [1]; PMA-stimulated PBL) [%] | inhibition at 10 µM (TNF-α [1]; zymosan-stimulated PBL) [%] | inhibition at 50 µM (TNF-α [1]; LPS-stimulated PBL) [%] | inhibition at 50 µM (TNF-α [1]; PMA-stimulated PBL) [%] | inhibition at 50 µM (TNF-α [1]; zymosan-stimulated PBL) [%] | inhibition at 10 µM (IL-8; LPS-stimulated PBL) [%] | inhibition at 10 µM (IL-8; PMA-stimulated PBL) [%] | inhibition at 10 µM (IL-8; zymosan-stimulated PBL) [%] | inhibition at 50 µM (IL-8; LPS-stimulated PBL) [%] | inhibition at 50 µM (IL-8; PMA-stimulated PBL) [%] | inhibition at 50 µM (IL-8; zymosan-stimulated PBL) [%] | inhibition at 10 µM (IL-1α; LPS-stimulated PBL) [%] | inhibition at 10 µM (IL-1α; PMA-stimulated PBL) [%] | inhibition at 10 µM (IL-1α; zymosan-stimulated PBL) [%] | inhibition at 50 µM (IL-1α; LPS-stimulated PBL) [%] | inhibition at 50 µM (IL-1α; PMA-stimulated PBL) [%] | inhibition at 50 µM (IL-1α; zymosan-stimulated PBL) [%] | other results |
| --- | --- | --- | --- | --- | --- | --- | --- | --- | --- | --- | --- | --- | --- | --- | --- | --- | --- | --- | --- | --- | --- |
| CC[C@H]1OC(=O)[C@H](C)[C@@H](O[C@H]2C[C@@](C)(OC)[C@@H](O)[C@H](C)O2)[C@H](C)[C@@H](O[C@@H]2O[C@H](C)C[C@H](N(C)C)[C@H]2O)[C@](C)(O)C[C@@H](C)CN(C)[C@H](C)[C@@H](O)[C@]1(C)O [azithromycin, reference compound] | 0 | 0 | 36 | 0 | 6 | 20 | 0 | 64 | 0 | 0 | 0 | 0 | 0 | 0 | 28 | 0 | 20 | 48 | 0 | 75 | inhibition at 10 µM (IL-6; LPS-stimulated PBL): 15%; inhibition at 10 µM (IL-6; PMA-stimulated PBL): 0%; inhibition at 10 µM (IL-6; zymosan-stimulated PBL): 20%; inhibition at 50 µM (IL-6; LPS-stimulated PBL): 40%; inhibition at 50 µM (IL-6; PMA-stimulated PBL): 0%; inhibition at 50 µM (IL-6; zymosan-stimulated PBL): 75%; inhibition in vivo at 10 mg/kg (TNF-α [2]): 54%; inhibition at 10 µM ([3]; PHA): 5%; inhibition at 50 µM ([3]; PHA): 29%; inhibition at 10 µM ([3]; PMA + iono.): 9%; inhibition at 50 µM ([3]; PMA + iono.): 31%; Percentage of inhibition of cell growth (A549; 12.5 μM): 0%; Percentage of inhibition of cell growth (A549; 50 μM): 0% |
| CC[C@H]1OC(=O)[C@H](C)[C@@H](O[C@H]2C[C@@](C)(OC)[C@@H](O)[C@H](C)O2)[C@H](C)[C@@H](O[C@@H]2O[C@H](C)C[C@H](N(C)C)[C@H]2O)[C@](C)(OC)C[C@@H](C)C(=O)[C@H](C)[C@@H](O)[C@]1(C)O [clarithromycin, reference compound] | 0 | 0 | 0 | 0 | 0 | 0 | 0 | 0 | 23 | 33 | 0 | 0 | 0 | 0 | 0 | 26 | 36 | 0 | 33 | 59 | inhibition at 10 µM (IL-6; LPS-stimulated PBL): 11%; inhibition at 10 µM (IL-6; PMA-stimulated PBL): 0%; inhibition at 10 µM (IL-6; zymosan-stimulated PBL): 28%; inhibition at 50 µM (IL-6; LPS-stimulated PBL): 0%; inhibition at 50 µM (IL-6; PMA-stimulated PBL): 0%; inhibition at 50 µM (IL-6; zymosan-stimulated PBL): 0%; inhibition in vivo at 10 mg/kg (TNF-α [2]): 63%; inhibition at 10 µM ([3]; PHA): 0%; inhibition at 50 µM ([3]; PHA): 7%; inhibition at 10 µM ([3]; PMA + iono.): 9%; inhibition at 50 µM ([3]; PMA + iono.): 14%; Percentage of inhibition of cell growth (A549; 12.5 μM): 0%; Percentage of inhibition of cell growth (A549; 50 μM): 0% |
